Measured values published in US6867185B2 (Bristol-Myers Squibb Company, priority 2001, dated 2005).
Counter-ions that a name gives are not always drawn. Like-named read-outs stand apart in the source and are kept apart here.

Key:
[1] = biological target: T1, HCV NS3/4A protease complex, BMS strain (genotype 1a) (Hepatitis C virus genotype 1a, UniProt P27958, C1454S/C1711G); test: Recombinant HCV NS3/4A protease complex FRET peptide assay (BMS strain); format: biochemical; settings: IC50 ranges
T1 construct: recombinant HCV NS3/4A protease complex (amino'acids 1027 to 1711); inferred from the pET21b vector and Ni-NTA purification; made in house; host or cells: Escherichia coli BL21 (DE3), pET21b
T1 sequence (P27958 1027-1711 C1454S/C1711G, one chain of several): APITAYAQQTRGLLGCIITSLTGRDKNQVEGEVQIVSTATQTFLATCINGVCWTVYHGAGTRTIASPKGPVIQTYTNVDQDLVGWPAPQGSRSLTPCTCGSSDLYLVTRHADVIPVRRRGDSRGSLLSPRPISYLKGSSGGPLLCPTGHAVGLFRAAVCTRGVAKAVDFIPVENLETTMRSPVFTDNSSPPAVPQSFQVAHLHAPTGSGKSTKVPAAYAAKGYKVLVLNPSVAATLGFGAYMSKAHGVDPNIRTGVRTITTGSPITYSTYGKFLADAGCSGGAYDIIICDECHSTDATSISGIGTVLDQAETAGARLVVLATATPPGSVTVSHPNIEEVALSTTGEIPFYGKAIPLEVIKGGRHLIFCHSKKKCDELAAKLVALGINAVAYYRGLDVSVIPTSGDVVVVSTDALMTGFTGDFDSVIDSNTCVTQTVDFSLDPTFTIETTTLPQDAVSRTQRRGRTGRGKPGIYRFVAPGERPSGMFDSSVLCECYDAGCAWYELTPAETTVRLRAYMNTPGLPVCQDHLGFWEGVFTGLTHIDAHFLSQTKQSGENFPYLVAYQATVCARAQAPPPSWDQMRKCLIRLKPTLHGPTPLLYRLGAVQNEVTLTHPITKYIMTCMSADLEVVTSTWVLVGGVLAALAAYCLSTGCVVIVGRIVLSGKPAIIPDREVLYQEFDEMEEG
Source text: The purpose of this in vitro assay was to measure the inhibition of HCV NS3 protease complexes, derived from the BMS, H77C or J4L6S strains, as described below, by compounds of the present invention. This assay provides an indication of how effective compounds of the present invention would be in inhibiting HCV proteolytic activity.
Serum from an HCV-infected patient was obtained from Dr. T. Wright, San Francisco Hospital. An engineered full-length cDNA (compliment deoxyribonucleic acid) template of the HCV genome (BMS strain) was constructed from DNA fragments obtained by reverse transcription-PCR (RT-PCR) of serum RNA (ribonucleic acid) and using primers selected on the basis of homology between other genotype 1a strains. From the determination of the entire genome sequence, a genotype 1a was assigned to the HCV isolate according to the classification of Simmonds et al. (See P Simmonds, K A Rose, S Graham, S W Chan, F McOmish, B C Dow, E A Follett, P L Yap and H Marsden, J. Clin. Microbiol., 31 (6), 1493-1503 (1993)). […] The infectious clones, H77C (1a genotype) and J4L6S (1b genotype) were obtained from R. Purcell (N1H) and the sequences are published in Genbank (AAB67036, see Yanagi, M., Purcell, R. H., Emerson, S. U. and Bukh, J. Proc. Natl. Acad. Sci. U.S.A. 94 (16), 8738-8743 (1997); AF054247, see Yanagi, M., St Claire, M., Shapiro, M., Emerson, S. U., Purcell, R. H. and Bukh, J, Virology 244 (1), 161-172. (1998)).
The BMS, H77C and J4L6S strains were used for production of recombinant NS3/4A protease complexes. DNA encoding the recombinant HCV NS3/4A protease complex (amino'acids 1027 to 1711) for these strains were manipulated as described by P. Gallinari et al. (see Gallinari P, Paolini C, Brennan D, Nardi C, Steinkuhler C, De Francesco R. Biochemistry. 38 (17):5620-32, (1999)). Briefly, a three-lysine solubilizing tail was added at the 3′-end of the NS4A coding region. The cysteine in the P1 position of the NS4A-NS4B cleavage site (amino acid 1711) was changed to a glycine to avoid the proteolytic cleavage of the lysine tag. Furthermore, a cysteine to serine mutation was introduced by PCR at amino acid position 1454 to prevent the autolytic cleavage in the NS3 helicase domain. The variant DNA fragment was cloned in the pET21b bacterial expression vector (Novagen)and the NS3/4A complex was expressed in Escherichia. coli strain BL21 (DE3) (Invitrogen) following the protocol described by P. Gallinari et al. (see Gallinari P, Brennan D, Nardi C, Brunetti M, Tomei L, Steinkuhler C, De Francesco R., J. Virol. 72 (8):6758-69 (1998)) with modifications. Briefly, NS3/4A expression was induced with 0.5 mM Isopropyl β-D-1-thiogalactopyranoside (IPTG) for 22 hr at 20° C. A typical fermentation (10L) yielded approximately 80 g of wet cell paste. The cells were resuspended in lysis buffer (10 mL/g) consisting of 25 mM N-(2-Hydroxyethyl)Piperazine-N′-(2-Ethane Sulfonic acid) (HEPES), pH 7.5, 20% glycerol, 500 mM Sodium Chloride (NaCl), 0.5% Triton-X100, 1 ug/ml lysozyme, 5 mM Magnesium Chloride (MgCl2), 1 ug/ml Dnasel, 5 mM β-Mercaptoethanol (OME), Protease inhibitor-Ethylenediamine Tetraacetic acid (EDTA) free (Roche), homogenized and incubated for 20 mins at 4° C. The homogenate was sonicated and clarified by ultra-centrifugation at 235000 g for 1 hr at 4° C. Imidazole was added to the supernatant to a final concentration of 15 mM and the pH adjusted to 8.0. The crude protein extract was loaded on a Nickel-Nitrilotriacetic acid (Ni-NTA) column pre-equilibrated with buffer B (25 mM HEPES, pH 8.0, 20% glycerol, 500 mM NaCl, 0.5% Triton-X100, 15 mM imidazole, 5 mM βME). The sample was loaded at a flow rate of 1 mL/min. The column was washed with 15 column volumes of buffer C (same as buffer B except with 0.2% Triton-X100). The protein was eluted with 5 column volumes of buffer D (same as buffer C except with 200 mM Imidazole). […]

[2] = test system: HCV replicon in Huh7 cells; test: HCV replicon cell-based assay (replicon FRET assay); set-up: species or system HCV strain 1B; settings: EC50 ranges
Source text: An HCV replicon whole cell system was established as described by Lohmann V, Korner F, Koch J, Herian U, Theilmann L, Bartenschlager R., Science 285 (5424):110-3 (1999). This system enabled us to evaluate the effects of our HCV Protease compounds on HCV RNA replication. Briefly, using the HCV strain 1B sequence described in the Lohmann paper (Assession number:AJ238799), an HCV cDNA was generated encoding the 5′ internal ribosome entry site (IRES), the neomycin resistance gene, the EMCV (encephalomyocarditis viurs)-IRES and the HCV nonstructural proteins, NS3-NS5B, and 3′ non-translated region (NTR). In vitro transcripts of the cDNA were transfected into the human hepatoma cell line, Huh7. […] Resulting cell lines were characterized for positive and negative strand RNA production and protein production over time.
Huh7 cells, constitutively expressing the HCV replicon, were grown in Dulbecco's Modified Eagle Media (DMEM) containing 10% Fetal calf serum (FCS) and 1 mg/ml G418 (Gibco-BRL). Cells were seeded the night before (1.5×10^4 cells/well) in 96-well tissue-culture sterile plates. Compound and no compound controls were prepared in DMEM containing 4% FCS, 1:100 Penicillin/Streptomysin, 1:100 L-glutamine and 5% DMSO in the dilution plate (0.5% DMSO final concentration in the assay). Compound/DMSO mixes were added to the cells and incubated for 4 days at 37° C. After 4 days, plates were rinsed thoroughly with Phosphate-Buffered Saline (PBS) (3 times 150 μl). The cells were lysed with 25 μl of a lysis assay reagent containing the FRET peptide (RET S1, as described for the in vitro enzyme assay). The lysis assay reagent was made from 5× cell Luciferase cell culture lysis reagent(Promega #E153A) diluted to 1× with distilled water, NaCl added to 150 mM final, the FRET peptide diluted to 10 μM final from a 2 mM stock in 100% DMSO. The plate was then placed into the Cytofluor 4000 instrument which had been set to 340 nm excitation/490 emission, automatic mode for 21 cycles and the plate read in a kinetic mode. EC50 determinations were carried out as described for the IC50 determinations.

[3] = IC50, HCV NS3/4A protease FRET assay in vitro
[4] = Hepatitis C virus, Huh-7, HCV replicon cell assay

Structure (SMILES): COc1ccc2c(O[C@@H]3C[C@H]4C(=O)N[C@]5(C(=O)NS(=O)(=O)C6CC6)C[C@H]5/C=C\CCCCC[C@H](NC(=O)OC(C)(C)C)C(=O)N4C3)cc(-c3ccccc3)nc2c1 (relative stereo) [Compound 11, (1S,4R,6S,13S,18R)-7-cis-[4-Cyclopropanesulfonyl-aminocarbonyl-18-(7-methoxy-2-phenylquinolin-4-yloxy)-2,15-dioxo-3,16-diazatricyclo-[14.3.0.0^4,6]nona-dec-7-en-14-yl]carbamic acid tert-butyl ester]
- IC50 ([1]; HCV NS3/4A protease FRET assay in vitro, read-out: IC50): < 50 nM
- EC50 ([2]; HCV replicon cell assay, read-out: EC50): < 50 nM

Structure (SMILES): COc1ccc2c(O[C@@H]3C[C@H]4C(=O)N[C@]5(C(=O)NS(=O)(=O)C6CC6)C[C@H]5/C=C/CC[C@H](NC(=O)OC(C)(C)C)C(=O)N4C3)cc(-c3ccccc3)nc2c1 [Compound 1, (1S,4R,6S,11S,15R)-7-trans-[4-Cyclopropanesulfonyl-amino-carbonyl-15-(7-methoxy-2-phenylquinolin-4-yloxy)-2,12-dioxo-3,13-diazatricyclo[11.3.0.0^4,6]hexa-dec-7-en-11-yl]carbamic acid tert-butyl ester]
- IC50 [1, 3]: < 5000 nM
- EC50 [2, 4]: < 50000 nM

Structure (SMILES): COc1ccc2c(O[C@@H]3C[C@H]4C(=O)N[C@]5(C(=O)NS(=O)(=O)C6CC6)CC5/C=C/CC[C@H](N)C(=O)N4C3)cc(-c3ccccc3)nc2c1 (stereo partly drawn) [Compound 2, (1S 4R,6S,11S,15R)-7-trans-Cyclopropanesulfonic acid [11-amino-15-(7-methoxy-2-phenylquinolin-4-yloxy)-2,12-dioxo-3,13-diazatricyclo-[11.3.0.0^4,6]hexadec-7-ene-4-carbonyl]amide dihydrochloride]
- IC50 [1, 3]: < 5000 nM

Structure (SMILES): COc1ccc2c(O[C@@H]3C[C@H]4C(=O)N[C@]5(C(=O)NS(=O)(=O)C6CC6)CC5/C=C/CCC[C@H](NC(=O)OC(C)(C)C)C(=O)N4C3)cc(-c3ccccc3)nc2c1 (stereo partly drawn) [Compound 3, (1S,4R,6S,12S,16R)-7-trans-[4-Cyclopropanesulfonyl-aminocarbonyl-16-(7-methoxy-2-phenylquinolin-4-yloxy)-2,13-dioxo-3,14-diazatricyclo[12.3.0.0^4,6]heptadec-7-en-12-yl]carbamic acid tert-butyl ester]
- IC50 [1, 3]: < 5000 nM
- EC50 [2, 4]: < 50000 nM

Structure (SMILES): COc1ccc2c(O[C@@H]3C[C@H]4C(=O)N[C@]5(C(=O)NS(=O)(=O)C6CC6)CC5/C=C/CCC[C@H](N)C(=O)N4C3)cc(-c3ccccc3)nc2c1 (stereo partly drawn) [Compound 4, (1S,4R,6S,12S,16R)-7-trans-Cyclopropanesulfonic acid [12-amino-16-(7-methoxy-2-phenylquinolin-4-yloxy)-2,13-dioxo-3,14-diazatricyclo [12.3.0.0^4,6]heptadec-7-ene-4-carbonyl]amide dihydrochloride]
- IC50 [1, 3]: < 50000 nM

Structure (SMILES): COc1ccc2c(O[C@@H]3C[C@H]4C(=O)N[C@]5(C(=O)NS(=O)(=O)C6CC6)CC5/C=C/CCCC[C@H](NC(=O)OC(C)(C)C)C(=O)N4C3)cc(-c3ccccc3)nc2c1 (stereo partly drawn) [Compound 5, (1S,4R,6S,13S,17R)-7-trans-[4-Cyclopropanesul-fonylamino-carbonyl-17-(7-methoxy-2-phenylquinolin-4-yloxy)-2,14-dioxo-3,15-diazatricyclo[13.3.0.0^4,6]octa-dec-7-en-13-yl]carbamic acid tert-butyl ester]
- IC50 [1, 3]: < 50 nM
- EC50 [2, 4]: < 50 nM

Structure (SMILES): COc1ccc2c(O[C@@H]3C[C@H]4C(=O)N[C@]5(C(=O)NS(=O)(=O)C6CC6)CC5/C=C\CCCC[C@H](NC(=O)OC(C)(C)C)C(=O)N4C3)cc(-c3ccccc3)nc2c1 (stereo partly drawn) [Compound 7, (1S,4R,65,13S,17R)-7-cis-[4-Cyclopropanesulfonylamino-carbonyl-17-(7-methoxy-2-phenylquinolin-4-yloxy)-2,14-dioxo-3,15-diazatricyclo[13.3.0.0^4,6]octadec-7-en-13-yl]carbamic acid tert-butyl ester]
- IC50 [1, 3]: < 50 nM
- EC50 [2, 4]: < 50 nM

Structure (SMILES): COc1ccc2c(O[C@@H]3C[C@H]4C(=O)N[C@]5(C(=O)NS(=O)(=O)C6CC6)CC5/C=C\CCCC[C@H](N)C(=O)N4C3)cc(-c3ccccc3)nc2c1 (stereo partly drawn) [Compound 8, (1S,4R,6S,13S,17R)-7-cis-Cyclopropanesulfonic acid [13-amino-17-(7-methoxy-2-phenylquinolin-4-yloxy)-2,14-dioxo-3,15-diazatricyclo[13.3.0.0^4,6]octadec-7-ene-4-carbonyl]amide dihydrochloride]
- IC50 [1, 3]: < 50 nM
- EC50 [2, 4]: < 500 nM

Structure (SMILES): COc1ccc2c(O[C@@H]3C[C@H]4C(=O)N[C@]5(C(=O)NS(=O)(=O)C6CC6)C[C@H]5/C=C\CCCCC[C@H](NC(=O)OC(C)(C)C)C(=O)N4C3)cc(-c3ccccc3)nc2c1 [Compound 9, (1S,4R,6S,14S,18R)-7-cis-[4-Cyclopropanesulfonylamino-carbonyl-18-(7-methoxy-2-phenylquinolin-4-yloxy)-2,15-dioxo-3,16-diazatricyclo[14.3.0.0^4,6]nonadec-7-en-14-yl]carbamic acid tert-butyl ester]
- IC50 [1, 3]: < 50 nM
- EC50 [2, 4]: < 50 nM

Structure (SMILES): COc1ccc2c(O[C@@H]3C[C@H]4C(=O)N[C@]5(C(=O)NS(=O)(=O)C6CC6)CC5/C=C\CCCCC[C@H](N)C(=O)N4C3)cc(-c3ccccc3)nc2c1 (stereo partly drawn) [Compound 10, (1S,4R,6S,14S,18R)-7-cis-Cyclopropane-sulfonic acid [14-amino-18-(7-methoxy-2-phenylquinol-in-4-yloxy)-2,15-dioxo-3,16-diazatricyclo[14.3.0.0^4,6]-nonadec-7-ene-4-carbonyl]amide dihydrochloride]
- IC50 [1, 3]: < 50 nM
- EC50 [2, 4]: < 50 nM
